Assay results published in paper PMC11007962, “First-in-human study of GFH018, a small molecule inhibitor of transforming growth factor-β receptor I inhibitor, in patients with advanced solid tumors” (BMC Cancer, 2024).
Like-named read-outs stand apart in the source and are kept apart here.

Test system: patients with advanced solid tumors
[1] = 5 mg BID 14d-on/14d-off (N = 4)
[2] = 10 mg BID 14d-on/14d-off (N = 3)
[3] = 20 mg BID 14d-on/14d-off (N = 4)
[4] = 30 mg BID 14d-on/14d-off (N = 7)

Description: The study consisted of a dose-escalation part followed by an expansion part. In the dose escalation part, a 3-day pharmacokinetic (PK) lead-in period was conducted for a single dose in the first treatment cycle. Patients received GFH018 once on cycle 1 day 1 (C1D1) and underwent serial PK testing over the first 3 days. On C1D4, patients were administered the corresponding dose of GFH018 BID 14 days on/14 days off. The first cycle was defined as 31 days, including 3-day PK leading-in period with GFH018 single dosing and then 14d-on/14d-off dosing schedule. The subsequent cycles were 28 days. The starting dose of GFH018 was 5 mg, with eight planned dose levels up to 85 mg (5, 10, 20, 30, 40, 50, 65, and 85 mg). A modified 3+3 design was used to determine the maximum tolerance dose (MTD) and RDE, guided by safety/tolerability and PK data. Dose-limiting toxicities (DLTs) were evaluated during the first cycle at each dose level. The safety of 85 mg BID, 7 d-on/7 d-off, was explored after confirming the safety of 14 d-on/14 d-off. The DLTs were defined as hematological toxicities, including G4 neutropenia lasting for more than 5 days, G3 febrile neutropenia, G4 anemia, G4 thrombocytopenia, or G3 thrombocytopenia accompanied by bleeding, and ≥ G3 nonhematological toxicity (except for diarrhea, nausea, vomiting, and rash recovering ≤ G2 after supportive treatment within 3 days). The DLTs for cardiac toxicities included ≥ G2 cardiac valve abnormalities, ≥ G2 left ventricular ejection fraction (LVEF) decrease, any cardiovascular impairment shown in imaging, and abnormal highly sensitive troponin (hs-Tn) increased to ≥ twice the baseline in two consecutive tests with an interval ≥ 3 days. In the expansion part, patients were orally administered GFH018 RDE twice daily to further evaluate the safety of RDE and other dose regimens. […] The treatment cycle lasted 28 days.
All enrolled patients were monitored regularly after GFH018 administration. Safety assessments included adverse events (AEs), serious AEs (SAEs), laboratory assessments, vital signs, physical examinations, electrocardiography and echocardiography. AEs were graded according to the NCI Common Terminology Criteria for Adverse Events (NCI-CTCAE) v5.0. All AEs were followed up until they were stable or had recovered to baseline. Adverse events of special interest (AESIs) were predefined as echocardiographic abnormalities such as aggravated stenosis or regurgitation of the heart valves, clinically significant decreases in LVEF, brain natriuretic peptide (BNP) or N-terminal pro-brain natriuretic peptide (NT-proBNP) increases, and hs-Tn increases judged by investigators.
For the safety and efficacy analyses, data from patients who received GFH018 at the same dose in the dose-escalation and expansion cohorts were pooled. The demographic and baseline characteristics were summarized using descriptive methods. Safety and efficacy data were summarized for all patients who received at least one dose of GFH018. The ORR and DCR were summarized by cohort and overall. When the sample size of the analyzed group was ten or more, the Kaplan–Meier method was used to estimate the median PFS and TTP. In this study, treatment-emergent AEs (TEAEs) were defined as AEs that occurred on or after the first dosing date of GFH018 and no later than 30 days after the last dose of GFH018. The incidence and severity of AEs were descriptively summarized according to dose level. The PK parameters of GFH018 were calculated using noncompartmental analysis methods. All plasma PK data were summarized by cohort and visit day or time using descriptive statistics.

**Q.** Which results are given for `Cc1cccc(-c2nn3c(c2-c2ccc4ncnn4c2/C=C/C(N)=O)CCC3)n1` [GFH018]?
**A.** At least one TEAE [1]: 4 (100%) n (%); At least one TRAE [1]: 4 (100%) n (%); TEAE: ALP increased [1]: 0 n (%); TEAE: ALT increased [1]: 0 n (%); TEAE: AST increased [1]: 0 n (%); TEAE: Abdominal distention [1]: 0 n (%); TEAE: Abdominal pain [1]: 0 n (%); TEAE: Anemia [1]: 0 n (%); TEAE: Asthenia [1]: 0 n (%); TEAE: Bilirubin conjugated increased [1]: 1 (25.0%) n (%); TEAE: Blood albumin decreased [1]: 2 (50.0%) n (%); TEAE: Blood bilirubin increased [1]: 0 n (%); TEAE: C-reactive protein increased [1]: 2 (50.0%) n (%); TEAE: Constipation [1]: 0 n (%); TEAE: Decreased appetite [1]: 1 (25.0%) n (%); TEAE: GGT increased [1]: 1 (25.0%) n (%); TEAE: Hypoalbuminemia [1]: 0 n (%); TEAE: LDH increased [1]: 1 (25.0%) n (%); TEAE: Lymphocyte count decreased [1]: 4 (100%) n (%); TEAE: Platelet count decreased [1]: 1 (25.0%) n (%); TEAE: Proteinuria [1]: 1 (25.0%) n (%); TEAE: Sinus tachycardia [1]: 2 (50.0%) n (%); TEAE: Urine protein present [1]: 2 (50.0%) n (%); TEAE: White blood cell count decreased [1]: 1 (25.0%) n (%); TEAE: White blood cells urine positive [1]: 0 n (%); TRAE: ALP increased [1]: 0 n (%); TRAE: ALT increased [1]: 0 n (%); TRAE: AST increased [1]: 0 n (%); TRAE: Anemia [1]: 0 n (%); TRAE: GGT increased [1]: 0 n (%); TRAE: LDH increased [1]: 0 n (%); TRAE: Lymphocyte count decreased [1]: 1 (25.0%) n (%); TRAE: Protein urine present [1]: 1 (25.0%) n (%); TRAE: Proteinuria [1]: 0 n (%); Treatment-emergent Proteinuria (grouped PTs), G1 [1]: 1 (25.0) n (%); Treatment-emergent Proteinuria (grouped PTs), G2 [1]: 2 (50.0) n (%); Treatment-emergent Proteinuria (grouped PTs), G3 [1]: 0 n (%); Treatment-emergent Proteinuria (grouped PTs: proteinuria and urine protein present), any grade [1]: 3 (75.0) n (%); At least one TEAE [2]: 3 (100%) n (%); At least one TRAE [2]: 3 (100%) n (%); TEAE: ALP increased [2]: 1 (33.3%) n (%); TEAE: ALT increased [2]: 1 (33.3%) n (%); TEAE: AST increased [2]: 0 n (%); TEAE: Abdominal distention [2]: 0 n (%); TEAE: Abdominal pain [2]: 0 n (%); TEAE: Anemia [2]: 1 (33.3%) n (%); TEAE: Asthenia [2]: 1 (33.3%) n (%); TEAE: Bilirubin conjugated increased [2]: 0 n (%); TEAE: Blood albumin decreased [2]: 1 (33.3%) n (%); TEAE: Blood bilirubin increased [2]: 0 n (%); TEAE: C-reactive protein increased [2]: 0 n (%); TEAE: Constipation [2]: 1 (33.3%) n (%); TEAE: Decreased appetite [2]: 0 n (%); TEAE: GGT increased [2]: 2 (66.7%) n (%); TEAE: Hypoalbuminemia [2]: 0 n (%); TEAE: LDH increased [2]: 1 (33.3%) n (%); TEAE: Lymphocyte count decreased [2]: 0 n (%); TEAE: Platelet count decreased [2]: 0 n (%); TEAE: Proteinuria [2]: 0 n (%); TEAE: Sinus tachycardia [2]: 0 n (%); TEAE: Urine protein present [2]: 2 (66.7%) n (%); TEAE: White blood cell count decreased [2]: 0 n (%); TEAE: White blood cells urine positive [2]: 0 n (%); TRAE: ALP increased [2]: 1 (33.3%) n (%); TRAE: ALT increased [2]: 1 (33.3%) n (%); TRAE: AST increased [2]: 0 n (%); TRAE: Anemia [2]: 1 (33.3%) n (%); TRAE: GGT increased [2]: 2 (66.7%) n (%); TRAE: LDH increased [2]: 1 (33.3%) n (%); TRAE: Lymphocyte count decreased [2]: 0 n (%); TRAE: Protein urine present [2]: 1 (33.3%) n (%); TRAE: Proteinuria [2]: 0 n (%); Treatment-emergent Proteinuria (grouped PTs), G1 [2]: 0 n (%); Treatment-emergent Proteinuria (grouped PTs), G2 [2]: 2 (66.7) n (%); Treatment-emergent Proteinuria (grouped PTs), G3 [2]: 0 n (%); Treatment-emergent Proteinuria (grouped PTs: proteinuria and urine protein present), any grade [2]: 2 (66.7) n (%); At least one TEAE [3]: 4 (100%) n (%); At least one TRAE [3]: 4 (100%) n (%); TEAE: ALP increased [3]: 1 (25.0%) n (%); TEAE: ALT increased [3]: 1 (25.0%) n (%); TEAE: AST increased [3]: 0 n (%); TEAE: Abdominal distention [3]: 1 (25.0%) n (%); TEAE: Abdominal pain [3]: 0 n (%); TEAE: Anemia [3]: 1 (25.0%) n (%); TEAE: Asthenia [3]: 2 (50.0%) n (%); TEAE: Bilirubin conjugated increased [3]: 1 (25.0%) n (%); TEAE: Blood albumin decreased [3]: 1 (25.0%) n (%); TEAE: Blood bilirubin increased [3]: 1 (25.0%) n (%); TEAE: C-reactive protein increased [3]: 0 n (%); TEAE: Constipation [3]: 0 n (%); TEAE: Decreased appetite [3]: 0 n (%); TEAE: GGT increased [3]: 0 n (%); TEAE: Hypoalbuminemia [3]: 0 n (%); TEAE: LDH increased [3]: 0 n (%); TEAE: Lymphocyte count decreased [3]: 0 n (%); TEAE: Platelet count decreased [3]: 0 n (%); TEAE: Proteinuria [3]: 2 (50.0%) n (%); TEAE: Sinus tachycardia [3]: 0 n (%); TEAE: Urine protein present [3]: 2 (50.0%) n (%); TEAE: White blood cell count decreased [3]: 1 (25.0%) n (%); TEAE: White blood cells urine positive [3]: 1 (25.0%) n (%); TRAE: ALP increased [3]: 0 n (%); TRAE: ALT increased [3]: 0 n (%); TRAE: AST increased [3]: 0 n (%); TRAE: Anemia [3]: 0 n (%); TRAE: GGT increased [3]: 0 n (%); TRAE: LDH increased [3]: 0 n (%); TRAE: Lymphocyte count decreased [3]: 0 n (%); TRAE: Protein urine present [3]: 1 (25.0%) n (%); TRAE: Proteinuria [3]: 2 (50.0%) n (%); Treatment-emergent Proteinuria (grouped PTs), G1 [3]: 3 (75.0) n (%); Treatment-emergent Proteinuria (grouped PTs), G2 [3]: 1 (25.0) n (%); Treatment-emergent Proteinuria (grouped PTs), G3 [3]: 0 n (%); Treatment-emergent Proteinuria (grouped PTs: proteinuria and urine protein present), any grade [3]: 4 (100.0) n (%); At least one TEAE [4]: 7 (100%) n (%); At least one TRAE [4]: 7 (100%) n (%); TEAE: ALP increased [4]: 1 (14.3%) n (%); TEAE: ALT increased [4]: 2 (28.6%) n (%); TEAE: AST increased [4]: 3 (42.9%) n (%); TEAE: Abdominal distention [4]: 2 (28.6%) n (%); TEAE: Abdominal pain [4]: 2 (28.6%) n (%); TEAE: Anemia [4]: 3 (42.9%) n (%); TEAE: Asthenia [4]: 2 (28.6%) n (%); TEAE: Bilirubin conjugated increased [4]: 2 (28.6%) n (%); TEAE: Blood albumin decreased [4]: 0 n (%); TEAE: Blood bilirubin increased [4]: 3 (42.9%) n (%); TEAE: C-reactive protein increased [4]: 0 n (%); TEAE: Constipation [4]: 4 (57.1%) n (%); TEAE: Decreased appetite [4]: 1 (14.3%) n (%); TEAE: GGT increased [4]: 1 (14.3%) n (%); TEAE: Hypoalbuminemia [4]: 3 (42.9%) n (%); TEAE: LDH increased [4]: 3 (42.9%) n (%); TEAE: Lymphocyte count decreased [4]: 1 (14.3%) n (%); TEAE: Platelet count decreased [4]: 1 (14.3%) n (%); TEAE: Proteinuria [4]: 4 (57.1%) n (%); TEAE: Sinus tachycardia [4]: 1 (14.3%) n (%)
